For 89 molecules, melting point results are on record in a melting point compilation (Tetko et al.; mined from patent text by program, amines drawn as free bases though some values may be those of a salt).

Molecules are shown by their SMILES. Where only a bound is given, the exact number is not on record here.

For orientation: melting point means the temperature of the solid-liquid transition. In turn, `CC1C(=NO)SCC(=O)N1C` (centres undefined) displayed a melting point of 205 °C.

As to `O=C(NCCCCCCOC(=O)N1CCC2(CCCC2)CC1)OC1CCN(C(=O)Oc2ccc([N+](=O)[O-])cc2)CC1`, the melting point was in the range of 113 to 114 °C.

`CC(NC(=S)NCc1ccc(C(C)(C)C)cc1)c1ccc(NS(C)(=O)=O)cc1` (centres undefined) displayed a melting point of 101 °C.

For the molecule `O=S(=O)(NC(CO)CO)c1ccc(Cl)s1`, the melting point was 90 to 92 °C.

The molecule `C=CCN(CC=C)C(=O)n1cnc(S(=O)(=O)CCOCC)n1` yielded a melting point of 62 to 63 °C.

For `Cc1cc(I)ccc1Nc1c(-c2nnc(S)o2)ccc(F)c1F`, the melting point fell in the range of 232 to 233 °C.

Molecule `O=C1OCCC1NS(=O)(=O)c1ccc(Cl)cc1` (racemic) had a melting point of 113 to 115 °C.

As for `Cc1ccccc1Oc1cccc(CCC(=O)O)c1O`, the melting point was in the range of 106 to 107 °C.

As to `Cc1cc(Cl)ccc1NC(=O)n1nc(Oc2cccc(C(F)(F)F)c2)cc1C`, the melting point lay in the range of 95 to 96 °C.

Consider `CS(=O)(=O)Nc1nccc(Oc2ccc3c(C(=O)Nc4ccc(F)c(C(F)(F)F)c4)cccc3c2)n1`, for which the melting point came to 246 °C.

Molecule `O=C1Cn2c(cc3ccccc32)C(=O)N1CCCCN1CCN(c2ncccn2)CC1` came in with a melting point of 237 to 239 °C.

Molecule `COc1ccc2[nH]cc(CC3=CCCN(CCCC(O)c4ccc(F)cc4)C3)c2c1` (centres undefined) gave a melting point of 160 to 170 °C.

In turn, `Cc1cc(F)ccc1-c1ccc(S(=O)(=O)N2c3ccccc3CC2C(=O)NCc2ccccc2NCCC(=O)O)cc1` (centres undefined) yielded a melting point of 118 to 126 °C.

`C[C@@H](n1cnc2cc(S(=O)(=O)c3ccccc3)ccc2c1=O)[C@](O)(Cn1cncn1)c1ccc(F)cc1F`: the melting point fell in the range of 125 to 130 °C.

As for `COC(=O)[C@H](CC(C)C)NC(=O)[C@H](NC(=O)OCc1ccccc1)C(C)C`, the melting point was 112 to 114 °C.

On to `O=C(O)C1=Cc2cc(Cl)c(Oc3cccc(Cl)n3)cc2OC1C(F)(F)F` (centres undefined), for which the melting point lay in the range of 226 to 227 °C.

For the molecule `CN1CCN=C1C(O)(c1ccccc1)c1ccccn1` (centres undefined), the melting point lay in the range of 105 to 108 °C.

`CCCc1nc2c(N)nc3cc(OCCOCCOc4ccc5c(c4)nc(N)c4nc(CCC)sc45)ccc3c2s1`: the melting point was 186 to 189 °C.

For the molecule `CC(O)Cc1nc(Cl)ccc1N` (centres undefined), the melting point fell in the range of 118 to 121 °C.

The molecule `COc1cc2nc(NC3CCC(N(C)C)CC3)c(-c3ccccn3)nc2cc1OC` (centres undefined) yielded a melting point of 168 to 171 °C.

For `COc1ccc(N2CCN(c3ccc(NC(=O)Oc4ccccc4)cn3)CC2)cc1`, the melting point was in the range of 197 to 198 °C.

Turning to `CC(=NNc1ccc(Cl)c2c1CC(C)O2)C(=O)O` (centres undefined), the melting point lay in the range of 155 to 157 °C.

On to `Cc1c2n(c3ccc(Br)cc13)CCCC2O` (centres undefined), for which the melting point was in the range of 120 to 123 °C.

The molecule `COc1c(C=O)c(C)cc2c1C(C)(C)CCC2(C)C` had a melting point of 78 °C.

In turn, `Clc1cccc(Nc2nccc(-c3ccncc3)n2)c1` yielded a melting point of 167 to 168 °C.

For the molecule `CS(=O)(=O)N(c1cccc(CN2CCN(C(c3ccccc3)c3ccccc3)CC2)n1)S(C)(=O)=O`, the melting point fell in the range of 167 to 169 °C.

Consider `CCCc1c(C)c(NC(=O)CC(C)(C)C)c(C)c2c1OCC2c1ccc(C(C)C)cc1` (centres undefined), for which the melting point lay in the range of 145 to 148 °C.

`CC(C)(C)NS(=O)(=O)c1ccccc1C(=O)CF` returned a melting point of 126 °C.

Consider `Cc1cc(OCCO)c2ccccc2c1O`, for which the melting point is 136 to 137 °C.

Take `NCCc1c2n(c3ccccc13)CCNCC2`: the melting point lay in the range of 77 to 80 °C.

The molecule `Cc1ccccc1C(=O)Nc1ccc(C(=O)N2Cc3ccccc3C(=O)c3ccccc32)cc1` came in with a melting point of 115 to 119 °C.

In turn, `CN1CCC(c2nn(-c3cccc(C(F)(F)F)c3)c3ccccc23)CC1` registered a melting point of 103 to 105 °C.

`O=[N+]([O-])C1(Cc2ccccc2)CN(Cc2ccccc2)CCN(Cc2ccccc2)C1` registered a melting point of 66 to 69 °C.

Consider `COC(=O)C1=C(C(=O)N(C(=O)CCl)c2cc(OC)c(Cl)cc2F)CCCC1`, for which the melting point came to 109 °C.

Consider `COC[C@@H]1CN(c2nsc3cc(O)ccc23)C(=O)O1`, for which the melting point is 142 to 143 °C.

As to `O=c1oc2c(c(O)c1C(c1ccccc1)C1CC1)CCCCCC2CC1CCOC1` (centres undefined), the melting point was in the range of 80 to 84 °C.

Turning to `COc1cccc2c3c(c(C)nc12)CCN3c1ccccc1C`, the melting point fell in the range of 182 to 183 °C.

Turning to `O=C(O)C1(CCCCCC(O)CCCCCC2(C(=O)O)CC2)CC1`, the melting point was 87 to 91 °C.

For `COC(C(=O)O)c1c(Cl)cccc1Cl` (centres undefined), the melting point lay within 95 to 96 °C.

`Cc1cc(NCc2ccc(-c3ccccc3-c3nnn(C(c4ccccc4)(c4ccccc4)c4ccccc4)n3)cc2)c(I)c(C)n1`: the melting point was in the range of 209 to 211 °C.

Molecule `O=C(CC1CSCCC1=O)c1ccc(F)cc1` (centres undefined) yielded a melting point of 112 to 114 °C.

The molecule `CCCCCCCCCCCCCCCCCCOc1cc(OCc2ccc3ccccc3n2)cc(N(CC(=O)OC)CC(=O)OC)c1` showed a melting point of 76 to 79 °C.

`O=[N+]([O-])c1cccnc1Nc1ccc2c(c1)OCO2` displayed a melting point of 146 to 148 °C.

For `Oc1cc(OCc2ccccc2)cc(OCc2ccccc2)c1C/C=C/c1ccccc1`, the melting point fell in the range of 76 to 78 °C.

For the molecule `N=C(N)NCc1ccc(OCCC2Oc3ccccc3N(Cc3ccccc3Cl)C2=O)cc1` (centres undefined), the melting point is 180 to 182 °C.

`CN1CCc2c(c3ccc(-n4ccc(-c5ccc(C(F)(F)F)nc5)cc4=O)cc3n2C)C1` registered a melting point of 295 to 300 °C.

`COc1cccc(S(=O)(=O)N(C)C)c1C#N` showed a melting point of 121 to 128 °C.

Consider `O=C1Nc2ccccc2C12COc1cc3c(cc12)CCCC3` (centres undefined), for which the melting point was greater than 230 °C.

The molecule `O=[N+]([O-])CS(=O)c1cccc2c1oc1ccccc12` (centres undefined) had a melting point of 174 to 176 °C.

The molecule `CCN(CC)C(=O)CC1CCN(Cc2cnc3cc(NC(=O)c4ccc(-c5ccc(F)cc5)cc4)c(C)cc3c2)CC1` displayed a melting point of 197 °C.

Molecule `COC(c1ccccc1)c1nc2c(N)nc3ccccc3c2n1CC(C)C` (centres undefined) came in with a melting point of 183 to 184 °C.

As to `CCN1C(=O)CCCc2c1ccc(Nc1ncc(Cl)c(Nc3ccc(N4CCOCC4)cc3OC)n1)c2OC`, the melting point was 210 to 212 °C.

In turn, `O=[N+]([O-])c1cnccc1NCc1ccccc1F` had a melting point of 108 to 109 °C.

Regarding `Cc1nccc2c1[nH]c1cc(O)ccc12`, the melting point was determined as 248 °C.

With `CCC1Cc2c(N3CCOCC3)c(F)cc3c(=O)c(C(=O)O)cn1c23` (centres undefined), the melting point is 275 to 278 °C.

In the case of `CN(C(=O)OC(C)(C)C)c1cc(Sc2cc(C(C)(C)C)c(O)c(C(C)(C)C)c2)ccc1N`, the melting point fell in the range of 95 to 96 °C.

With `CSCCCC1(C(=S)N[C@@H](Cc2ccc(NC(=O)c3c(Cl)cccc3Cl)cc2)C(=O)O)CCC1`, the melting point is 186 to 188 °C.

Turning to `NC(CO)(CO)CCCCCCCCCCCCCc1ccccc1`, the melting point is 61 to 64 °C.

`COc1cc2c(cc1OC)CN(CCc1ccc(NC(=O)c3cccc4c(=O)c5cccc(OC)c5[nH]c34)cc1)C2` gave a melting point of 215 to 225 °C.

Molecule `COc1cc(COc2nn(-c3ccccc3)cc2/C=C/c2coc(C(C)C)n2)ccc1OCc1nc(-c2ccc(CC(=O)O)cc2)oc1C` had a melting point of 116 to 118 °C.

In the case of `Cc1ccsc1C1CC(=O)c2c(C)ccnc2C1` (centres undefined), the melting point is 104 to 105 °C.

Molecule `C=Cc1ccc([Si](C)(C)C)c(C(=O)NCC)c1Cl` registered a melting point of 127 to 128 °C.

`CCCC(=O)C1=C(n2cccn2)CC(C2CCCSC2)CC1=O` (centres undefined) gave a melting point of 127 °C.

Take `CC(C)(C)c1cc(C=C2OC(NC(=N)N)=NC2=O)cc(C(C)(C)C)c1O`: the melting point was determined as 258 °C.

For `O=S(=O)(Cl)c1sc(Cl)c(Cl)c1Cl`, the melting point turned out to be 56 °C.

`Cc1ccc(-c2nc(Cc3cccc(CC(CO)CO)c3)c(C)o2)cc1`: the melting point was 114 to 115 °C.

In the case of `COc1ccc(-n2c(=O)[nH]c3c(C(N)=O)nc(-c4cccc(O)c4)nc32)cc1`, the melting point was in the range of 386 to 388 °C.

In the case of `O=C(OCc1ccc(OCCc2ccc(Cl)cc2)cc1)c1cccnc1`, the melting point lay in the range of 77 to 78 °C.

For the molecule `CNC(=S)n1nc(N=CN(C)C)nc1N`, the melting point is 184 to 188 °C.

The molecule `COC(=O)c1cccc2c1CCC2C#N` (centres undefined) showed a melting point of 76.5 to 77.5 °C.

As for `CC1CC(=O)NN=C1c1ccc(NC(=O)C(C)OS(C)(=O)=O)cc1` (centres undefined), the melting point was in the range of 110 to 112 °C.

`CCC(=NO)c1ccc(OCCOC)cc1`: the melting point fell in the range of 74 to 80 °C.

As for `Nc1nc(N)c2ncn(C3OC(CO)C(O)C3O)c2n1` (centres undefined), the melting point was 238 to 240 °C.

`O=[N+]([O-])c1cc(C(F)(F)F)cc2c(Cl)ccnc12` gave a melting point of 100 to 107 °C.

Molecule `O=C(O)c1snc(-c2cccc(Cl)c2)c1C(=O)O` came in with a melting point of 185 to 186 °C.

In the case of `CCn1ncc2c3onc(-c4ccc(F)cc4)c3cnc21`, the melting point lay in the range of 175 to 176 °C.

For `Nc1cccc2c1Cc1cccc(N)c1C2`, the melting point is 179 °C.

As for `O=[N+]([O-])c1ccc(CSc2ncnc3nc[nH]c23)cc1`, the melting point is 239 °C.

In turn, `C[C@@H]1CN(c2ccc(-c3[nH]nc4c3C(=O)c3c(NC(=O)NN5CCOCC5)cccc3-4)cc2)C[C@H](C)N1C` gave a melting point of 240 °C.

Molecule `Cc1ccnc(N2CCN(CCCC3CNc4c(ccc(C)c4-c4cc(C)c(O)c(C)c4)O3)CC2)c1` (centres undefined) came in with a melting point of 110 °C.

The molecule `O=C1Nc2ccccc2N2C1CCC2c1cccc(Cl)c1` (centres undefined) returned a melting point of 210 °C.

`CC(C#N)(c1ccc(Cl)cc1)c1ccc(N)cc1Cl` (centres undefined) registered a melting point of 135 °C.

In turn, `CCOC(=O)Nc1cc(N)ccc1F` came in with a melting point of 88 to 89 °C.

Take `Fc1ccc(N2CCN(Cc3cn4cc(Br)ccc4n3)CC2)cc1`: the melting point fell in the range of 110 to 112 °C.

`N#CCc1cccc2c(-c3ccc(Cl)cc3)onc12` yielded a melting point of 165 to 169 °C.

As to `CC1(C)CCC(C)(C)c2cc(C#Cc3ccc(/C=C/C(=O)O)cc3)ccc21`, the melting point was in the range of 256 to 258 °C.

In turn, `COc1nc2oc(-c3ccccc3)nc2cc1C` registered a melting point of 167 to 168 °C.

For the molecule `O=C1NN=C(c2ccc3c(c2)C2(CCCS2)C(=O)N3)CS1` (centres undefined), the melting point is 284 °C.

Turning to `CCc1[nH]n(C2CCCC2)c2nc(-c3ccc(Cl)cc3O)nc(=O)c1-2`, the melting point is greater than 300 °C.
